Data published in patent US8796246B2, “9, 10-secopregnane derivative and pharmaceutical” (Nippon Shinyaku Co., Ltd., priority 2006, dated 2014).

What was measured:
[1] = test system: human acute myelogenous leukemia cell line HL-60; assay: Ability to induce differentiation of HL-60 cells (oxygen radical production after phorbol ester, WST-1); format: cell-based; settings: 72 hours incubation, then WST-1 and phorbol 12,13-didecanoate for 4 hours, absorbance at 450 nm
From the text: It is known that the human acute myelogenous leukemia cell line HL-60is differentiated into neutrophil-like cells by active vitamin D or the like. Thus, the cells after the differentiation begin to express a surface marker such as CD11and CD32and, at the same time, they produce an oxygen radical by stimulation with a phorbol ester or the like. In this test, the above-mentioned property was utilized. As an index of the ability to induce differentiation of the HL-60cells, the amount of the oxygen radical produced by stimulation with a phorbol ester was measured, and the compounds of the invention mentioned in Examples were compared with maxacalcitol with respect to the vitamin D3activity thereof. In use of commercial reagents and kits, if any, the indications attached thereto were referred to.
HL-60cells (supplied from ATCC) were seeded on a 96-well plate at 5×10^3cells/100μL/well and a test compound in two-fold dilution series from 10^−7M was added to the second to the twelfth rows (maximum concentration: the second row). The first row was used for blank. After incubation for 72 hours under a moisturized condition in the presence of 5% CO2 at 37° C. using a CO2 incubator, 10 μL of PBS containing 50 mM WST-1 (manufactured by Takara Bio) and 10 μM phorbol 12,13-didecanoate (manufactured by SIGMA) were added to each well followed by further incubation for 4 hours. Absorbance (reference wavelength: […]) at […] of the WST-1 formazane dye generated by conversion from WST-1 by oxygen radical produced from the differentiated HL-60 cells was measured by a Benchmark microplate reader (manufactured by BioRad). An absorbance meter control software MPM3 (manufactured by BioRad) was used and, from a concentration-absorbance curve, the 50%-maximal effective concentration (hereinafter, referred to as “EC50”) of each was determined by a logistic curve regression.

[2] = Metabolic rate in human liver microsome; format: in vitro ADME; settings: pooled human liver microsome 1 mg/mL protein, NADPH-regenerating system, 37° C., 2-60 minutes, HPLC
Method: The compounds of the invention mentioned in Examples and maxacalcitol were compared with each other with respect to the metabolic rate in human liver microsome.
As to the pooled human liver microsome (HHM-0323), those manufactured by Tissue Transformation Technologies were used. A 0.25 M potassium phosphate buffer (pH 7.4) (200 μL), 5 μL of a 250 μM solution of each compound to be tested in DMSO, 50 μL of an NADPH-regenerating system (where 20 mg of β-NADP^+, 70 mg of glucose-6-phosphate, 40 units of glucose-6-phosphate dehydrogenase and 20 mg of magnesium chloride were dissolved in 1 mL of distilled water) and 220 μL of distilled water were added to a microtube and the mixture was subjected to a preincubation for 5 minutes at 37° C. Reaction was started by an addition of 25 μL of human liver microsome (final concentration of protein: 1 mg/mL). Incubation was performed for 2, 10, 30 or 60 minutes and the reaction was stopped by an addition of 500 μL of acetonitrile. After centrifugation at 13,000 rpm for 5 minutes, each test compound in the supernatant (25 μL) was measured by HPLC under the following conditions.
Inertsil ODS-3 (4.6×150 mm; GL Science) was used as a column. With regard to the mobile phase, a solution A (acetonitrile/0.1% aqueous solution of ammonium acetate=10/90) and a solution B (acetonitrile/0.1% aqueous solution of ammonium acetate=90/10) were used under the linear gradient conditions mentioned in Tables 5 to 7. The column temperature, the flow rate and the wavelength for detection were set at 40° C., 1.0 mL/min. and UV 250 or 270 nm, respectively.
The compound mentioned in Example 38 was analyzed under the condition shown in Table 6; the compounds mentioned in Examples 55, 56, 68, 69, 72 and 73 were under the condition shown in Table 7; and the other compounds were under the condition shown in Table 5.
The compounds described in Examples 40, 43 to 48, 50, 55, 56, 58, 60, 61, 63 and 65 to 73 were analyzed under the condition of UV 250 nm; and the other compounds were under the condition of UV 270 nm.
From the HPLC test results as above, the metabolic rate of the test compound was calculated.

| EC50 [1] [nM] | Metabolic Rate [2] [pmol/min/mg] | SMILES |
| --- | --- | --- |
| 1.1 | 36 | C=C1C(=CC=C2CCCC3(C)C2CCC3C(C)OC(=O)CCCC(C)(O)C(F)(F)F)CC(O)CC1O [Compound of Example 37, (1S,3R,20S)-20-(6,6,6-trifluoro-5-hydroxy-5-methylhexanoyloxy)-9,10-secopregna-5Z,7E,10(19)-triene-1,3-diol] |
| 0.53 | 38 | C=C1C(=CC=C2CCCC3(C)C2CCC3C(C)OC(=O)CCC(O)(CC)CC)CC(O)CC1O [Compound of Example 13, (1S,3R,20S)-20-(4-ethyl-4-hydroxyhexanoyloxy)-9,10-secopregna-5Z,7E,10(19)-triene-1,3-diol] |
| 0.23 | 24 | CC(OC(=O)CCC(C)(C)O)C1=CCC2C(=CC=C3CC(O)C(C)C(O)C3)CCCC12C [Compound of Example 62, (1R,2α,3R,20S)-19-nor-2-methyl-20-(4-hydroxy-4-methylpentanoyloxy)-9,10-secopregna-5Z,7E,16-triene-1,3-diol] |
| 3.4 | 38 | C=C1C(=CC=C2CCCC3(C)C2CCC3C(C)OC(=O)C=CC(C)(C)O)CC(O)CC1O [Compound of Example 8, (1S,3R,20S)-20-[(2E)-4-hydroxy-4-methylpent-2-enoyloxy]-9,10-secopregna-5Z,7E,10(19)-triene-1,3-diol] |
| 1.3 | 63 | CC(OC(=O)CCC(C)(O)C(F)(F)F)C1CCC2C(=CC=C3CC(O)CC(O)C3)CCCC21C [Compound of Example 73, (1R,3R,20S)-19-nor-20-[(4R)-5,5,5-trifluoro-4-hydroxy-4-methylpentanoyloxy]-9,10-secopregna-5Z,7E-diene-1,3-diol] |
| 0.47 | 102 | C=C1C(O)CC(=CC=C2CCCC3(C)C(C(C)OC(=O)CCC(C)(O)C(F)(F)F)=CCC23)CC1O [Compound of Example 56, (1R,3R,20S)-19-nor-2-methylene-20-[(4R)-5,5,5-trifluoro-4-hydroxy-4-methylpentanoyloxy]-9,10-secopregna-5Z,7E,16-triene-1,3-diol] |
| 0.25 | 95 | C=C1C(O)CC(=CC=C2CCCC3(C)C2CCC3C(C)OC(=O)CCC(C)(O)C(F)(F)F)CC1O [Compound of Example 44, (1R,3R,20S)-2-methylene-19-nor-20-(5,5,5-trifluoro-4-hydroxy-4-methylpentanoyloxy)-9,10-secopregna-5Z,7E-diene-1,3-diol] |
| 4.2 | 36 | C=C1C(=CC=C2CCCC3(C)C2CCC3C(C)OC(=O)CCCC(O)(CC)CC)CC(O)CC1O [Compound of Example 34, (1S,3R,20S)-20-(5-hydroxy-5-ethylheptanoyloxy)-9,10-secopregna-5Z,7E,10(19)-triene-1,3-diol] |
| 0.29 | 29 | CCC(O)(C=CC(=O)OC(C)C1CCC2C(=CC=C3CC(O)C(C)C(O)C3)CCCC21C)CC [Compound of Example 65, (1R,2α,3R,20S)-2-methyl-19-nor-20-[(2E)-4-ethyl-4-hydroxyhex-2-enoyloxy]-9,10-secopregna-5Z,7E-diene-1,3-diol] |
| 4.5 | 22 | C=C1C(=CC=C2CCCC3(C)C2CCC3C(C)OC(=O)CCCC(C)(C)O)CC(O)CC1O [Compound of Example 3, (1S,3R,20S)-20-(5-hydroxy-5-methylhexanoyloxy)-9,10-secopregna-5Z,7E,10(19)-triene-1,3-diol] |
| 0.043 | 45 | CC(OC(=O)CCC(C)(C)O)C1CCC2C(=CC=C3CC(O)C(C)C(O)C3)CCCC21C [Compound of Example 50, (1R,2α,3R,20S)-2-methyl-19-nor-20-(4-hydroxy-4-methylpentanoyloxy)-9,10-secopregna-5Z,7E-diene-1,3-diol] |
| 1.4 | 45 | CC(OC(=O)CCC(C)(C)O)C1=CCC2C(=CC=C3CC(O)CC(O)C3)CCCC12C [Compound of Example 46, (1R,3R,20S)-19-nor-20-(4-hydroxy-4-methylpentanoyloxy)-9,10-secopregna-5Z,7E,16-triene-1,3-diol] |
| 0.053 | 78 | CC(OC(=O)CCC(C)(O)C(F)(F)F)C1CCC2C(=CC=C3CC(O)C(C)C(O)C3)CCCC21C [Compound of Example 60, (1R,2α,3R,20S)-2-methyl-19-nor-20-(5,5,5-trifluoro-4-hydroxy-4-methylpentanoyloxy)-9,10-secopregna-5Z,7E-diene-1,3-diol] |
| 0.31 | 40 | C=C1C(O)CC(=CC=C2CCCC3(C)C2CCC3C(C)OC(=O)C=CC(O)(CC)CC)CC1O [Compound of Example 45, (1R,3R,20S)-2-methylene-19-nor-20-[(2E)-4-ethyl-4-hydroxyhex-2-enoyloxy]-9,10-secopregna-5Z,7E-diene-1,3-diol] |
| 0.82 | 43 | C=C1C(=CC=C2CCCC3(C)C2CCC3C(C)OC(=O)CCC(C)(O)C(F)(F)F)CC(O)CC1O (single isomer, unassigned) [Compound of Example 35, (1S,3R,20S)-20-[(4R) or (4S)-5,5,5-trifluoro-4-hydroxy-4-methylpentanoyloxy]-9,10-secopregna-5Z,7E,10(19)-triene-1,3-diol] |
| 0.77 | 86 | C[C@H](OC(=O)CC[C@@](C)(O)C(F)(F)F)C1=CC[C@H]2/C(=C/C=C3C[C@@H](O)C[C@H](O)C3)CCC[C@]12C [Compound of Example 69, (1R,3R,20S)-19-nor-20-[(4R)-5,5,5-trifluoro-4-hydroxy-4-methylpentanoyloxy]-9,10-secopregna-5Z,7E,16-triene-1,3-diol] |
| 0.23 | 126 | CC(OC(=O)CCC(C)(O)C(F)(F)F)C1=CCC2C(=CC=C3CC(O)CC(O)C3)CCCC12C [Compound of Example 68, (1R,3R,20S)-19-nor-20-[(4S)-5,5,5-trifluoro-4-hydroxy-4-methylpentanoyloxy]-9,10-secopregna-5Z,7E,16-triene-1,3-diol] |
| 0.26 | 46 | C=C1C(O)CC(=CC=C2CCCC3(C)C2CCC3C(C)OC(=O)CCC(C)(C)O)CC1O [Compound of Example 41, (1R,3R,20S)-2-methylene-19-nor-20-(4-hydroxy-4-methylpentanoyloxy)-9,10-secopregna-5Z,7E-diene-1,3-diol] |
| 0.15 | 38 | CCC(O)(CC)CCC(=O)OC(C)C1CCC2C(=CC=C3CC(O)C(C)C(O)C3)CCCC21C [Compound of Example 67, (1R,2α,3R,20S) -2-methyl-19-nor-20-[4-ethyl-4-hydroxyhexanoyloxy]-9,10-secopregna-5Z,7E-diene-1,3-diol] |
| 2.3 | 33 | C=C1C(=CC=C2CCCC3(C)C2CCC3C(C)OC(=O)CC(=O)C(C)(O)C(F)(F)F)CC(O)CC1O [Compound of Example 38, (1S,3R,20S)-20-(5,5,5-trifluoro-4-hydroxy-4-methyl-3-oxopentanoyloxy)-9,10-secopregna-5Z,7E,10(19)-triene-1,3-diol] |
